Source: patent US11198869B2, “Angelman syndrome antisense treatment” (The Texas A&M University System, priority 2017, dated 2021)
pIC50: −log10 of the molar value.

Tested on: UBE3A-AS
Assay: UBE3A-AS steady state RNA dose response in Angelman syndrome iPSC-derived neurons
Type: cell-based, human
Conditions: for pIC50: six days following treatment, 10-point dose curve, read-out: potency (IC50), UBE3A-AS
Description: The steady state RNA levels of target transcripts were measured using TaqMan quantitative reverse-transcription PCR (qRT-PCR) assays. Total reaction volume was 10 uL, including 2 μl of cDNA, 1× Gene Expression Master mix (4369016, Thermo Fisher Scientific, Waltham, Mass.), and 1× TaqMan primer assay (Thermo Fisher Scientific). Cycling conditions were 2 minutes at 50° C., 10 minutes at 95° C., and 40 cycles of 15 seconds at 95° C. and 1 minute at 60° C., with readings taken at the 60° C. step of every cycle. Reactions were run on a BIO-RAD T1000 CFX96 thermocycler (Bio-Rad Laboratories, Hercules Calif.), with internal control (PPIA, Hs99999904_m1, Thermo Fisher Scientific) and target [UBE3A-AS, Hs01372957_m1; SNORD116-11, Hs04275268_gH; SNORD115, Hs04275288_gH; IPW, Hs03455409_s1; SNORD109A/B, AP47WVR (Thermo Fisher Scientific); UBE3A: forward […] (SEQ ID NO:500); reverse: […] (SEQ ID NO:501); and, probe: […] (SEQ ID NO:502)] reactions performed together. Data was retrieved and analyzed with the BIORAD CFX Maestro software (Bio-Rad Laboratories). Samples with internal control Cq values ≥30 were filtered. Quality of data was visually inspected to identify discrepancies between technical and/or plate replicates. Measurements for inferential statistics and descriptive statistics consist of ΔΔCq values (2^−ΔΔCq=2^−(Cq[target]−Cq[internal control])−(Cq[target]−Cq[internal control])).
The potencies of […] and ASO-4.4.PS.L were then examined in iPSC derived-neurons from an Angelman syndrome patient with a maternal derived deletion of the 15q11-q13 region. Induced pluripotent stem cells were differentiated into neurons and then treated with a 10-point ½ log dose response curve of ASO-6.1.PO-1.O and ASO-4.4.PS.L [1 nM, 3 nM, 10 nM, 30 nM, 100 nM, 300 nM, 1 μM, 3 μM, 10 μM, and 30 μM (n=3)]. Six days following treatment, the steady state RNA levels of UBE3A-AS were measured and dose response curves were fitted as described above (FIG. 9A). […] The Emax values were similar (30 μM: ASO-4.4.PS.L=0.01±0.0007; ASO-6.1.PO-1.O=0.05±0.004) but not considered equivalent due to the confidence intervals [ASO-6.1.PO-1.O/ASO-4.4.PS.L Emax ratio: =−9.1 (Lower confidence limit=−224; Upper confidence limit=205)].
Angelman syndrome induced pluripotent stem cells derived neurons Angelman syndrome iPS cells (AG1-0 iPSCs) (ECN001, Kerafast, Boston, Mass.) were co-cultured on irradiated murine embryonic fibroblasts in human embryonic stem cell medium [DMEM/F12 (11330-057, Gibco Biosciences, Dublin, Ireland), 20% Knockout Serum Replacement (10828-028, Thermo Fisher Scientific), 1× Non-essential amino acids, 2 mM L-glutamine, […] 2-Mercaptoethanol, and 4 μg/mL basic Fibroblast Growth Factor]. For the first passage, AG1-0 cells were passaged according to the product manual for PluriSTEM Human ES/iPS Medium (SCM130, Millipore Sigma, Burlington, Mass.), which is feeder-free and utilizes Dispase II (SCM133, Millipore Sigma) to dissociate cells. Matrigel™ hESC-qualified Matrix (354277, Corning BD Biosciences, Corning, N.Y.) was used as an extracellular matrix. At the second passage, the matrix was switched to vitronectin (CC130, Millipore Sigma). During subsequent passages, areas of differentiation were manually removed until differentiated cells represented approximately <5% of the colonies. After four subsequent passages, AG1-0 cells were differentiated using the Millipore ES/iPS Neurogenesis Kit (SCR603, SCM110, and SCM111) but lacking vitronectin as an extracellular matrix. The initial passage was performed with EZ-LiFT (SCM139, Millipore Sigma) to obtain high quality iPS cells. Neural progenitor cells were frozen at stage zero (P0) and subsequently thawed for differentiation. Differentiation was performed on sterile culture plates coated with poly-D-lysine (10 μg/mL) and laminin [10 μg/mL (23017-015, Gibco) in differentiation medium (SCM111) for 10 days of differentiation. […]

| ASO-6.1.PO-1.O/ASO-4.4.PS.L IC50 ratio (equivalence test) | Substance | Emax, normalized UBE3A-AS RNA level at 30 μM | ASO-6.1.PO-1.O/ASO-4.4.PS.L Emax ratio (equivalence test) | pIC50 | fold more potent than ASO-6.1.PO-1.O |
| --- | --- | --- | --- | --- | --- |
| 0.96 | C^O*U^O*G^O*G^O-t*g*t*c*a*a*c*a*a*g-C^O*C^O*A^O*A^o [ASO-6.1.PO-1.O] | 0.05±0.004 | −9.1 | 5.91 |  |
|  | A^L*G^L*A^L*a*t*g*g*c*a*c*a*t*c*t*5mC^L*T^L*T^L*G^L (NNNATGGCACATCTNNNN; LNA gapmer, PS, 5-methylcytosine, chemistry not fully specified) [ASO-4.4.PS.L] | 0.01±0.0007 |  | 6.36 | approximately 2.7 fold |
